Laboratory results from patent US12233068B2, “Combination of active agents for the treatment of progressive fibrosing interstitial lung diseases (PF-ILD)” (Boehringer Ingelheim International GmbH, priority 2017, dated 2025).
Where two headings read alike, the source gives them in different places.

Key:
[1] = test system: FGF plus IL-1β-stimulated proliferation of human lung fibroblasts from patients with IPF; experiment: Cell proliferation assay (BrdU incorporation), Experiment B; type: cell-based; details: for IC50: n=5 donors; for IC50 of PDE4 inhibitor alone compared to IC50 of its combination with Nintedanib (proliferation): IC50 alone / IC50 with 100 nMol/L Nintedanib; for effect of the combination with Nintedanib on inhibition of fibroblast proliferation versus calculated additive curve: measured curve with 100 nMol/L Nintedanib compared with calculated additive curve (Poch & Holzmann)
Procedure: (§1) Lung fibroblasts of IPF-patients (IPF-LF cells) grown in 96-well plates were incubated for min with different concentrations of the PDE4 inhibitors “Compound of formula III”, “Apremilast” or “Roflumilast-N-Oxide” or with a combination of each of the aforementioned PDE4-inhibitors with Nintedanib.
(§2) After compound incubation cells were stimulated with the assay-relevant stimulus and incubated for the assay—relevant time in the presence of the test compounds.
BrdU incorporated in the DNA of proliferating cells was determined by ELISA. BrdU is an analog of the DNA precursor thymidine. In proliferating cells, the DNA has to be replicated before the division can take place. If BrdU is added to the cell culture, proliferating cells will incorporate it into their DNA just like they would incorporate thymidine. The amount of BrdU in the DNA of cells can be detected with specific anti-BrdU fluorescent antibodies followed by flow cytometry or by cellular ELISA with monoclonal antibodies against BrdU.
IPF-lung fibroblasts (passage 5 to 8) were seeded in 96-well cell culture plates at 2500 cells/well with 100 μL/well FBM+supplements. 24 h after seeding the cells were washed once with FBM medium without supplements and then kept in this medium for 24 h starvation.
In experiment B1) the PDE4B-inhibitor of formula III was used as a “test compound” • in rising concentrations either alone (see full circles and black solid curve in FIG. 4) or • in rising concentrations together with a fixed concentration of 100 nMol/L of Nintedanib (see empty circles and grey solid line in FIG. 4).
In experiment B2) Apremilast was used as a “test compound” • in rising concentrations either alone (see full circles and black solid curve in FIG. 5) or • in rising concentrations together with a fixed concentration of 100 nMol/L of Nintedanib (see empty circles and grey solid line in FIG. 5).
In experiment B3) Roflumilast-N-oxide was used as a “test compound” • in rising concentrations either alone (see full circles and black solid curve in FIG. 6) or • in rising concentrations together with a fixed concentration of 100 nMol/L of Nintedanib (see empty circles and grey solid line in FIG. 6).
All test compounds were prepared 1000× in 0.1 mmol/L HCl or DMSO and a 1:3.16 dilution series was performed (in 0.1 mmol/L HCl or DMSO). To obtain 1× concentrated compound medium 1 μl of the 1000×DMSO dilution was added to 999 μl FBM.
48 h after seeding, medium was removed by suction and 90 μl compound- or starvation medium was added for 30 min
30 min after test compound pre-incubation (90 μL), 10 μl of 10× concentrated FGF plus IL-1β was added and the cells were stimulated for 92 h at a temperature of 37° C.
For this purpose the FGF and IL-1β stock solutions (250 μg/mL and 10 μg/mL respectively) were diluted in starvation medium to reach a concentration of 200 ng/mL and 300 pg/mL for FGF and IL-1β respectively. 10 μL of this stimulus medium or starvation medium was added to the indicated wells. The test compound concentration was maintained during the stimulation.
The final FGF concentration was 20 ng/mL. The final IL-1β concentration was 30 pg/mL.
Proliferation was determined by a colorimetric immunoassay for the quantification of cell proliferation, based on the measurement of BrdU incorporation during DNA synthesis. The assay was carried out according to the manufacturer's instructions.
72 h after stimulation a 1:100 dilution of BrdU in starvation medium (resulting concentration 100 μmol/L) was performed and 10 μl added per well (end-concentration per well 10 μmol/l). About 18 h later the BrdU medium was removed by suction. Cells were fixed and denatured for 30 min at room temperature with FixDenat reagent. The reagent was removed by tapping and the anti-BrdU-POD working solution was added (incubation time: 90 min). The plate was washed three times with 200 μL washing buffer before incubation with substrate solution for about 10 min. […]

[2] = test system: TGF-β-stimulated α-SMA protein expression of human lung fibroblasts from patients with IPF; experiment: α-SMA (smooth muscle actin) protein assay (Western replacement assay, MSD), Experiment A; type: cell-based; details: for IC50: n=5 donors; for sign of inhibition of TGF-β-stimulated α-SMA protein expression over the concentration/inhibition curve: low PDE4-inhibitor concentrations, alone or in combination with Nintedanib
Procedure: as §1, §2
α-SMA protein was determined by a Western-replacement assay (MSD) using monoclonal anti smooth muscle actin antibodies.
IPF-lung fibroblasts (passage 5 to 8) were seeded in 96-well cell culture plates at 4500 cells/well with 100 μL/well FBM+supplements. 24 h after seeding the cells were washed once with FBM medium without supplements and starved for 24 h.
In experiment A1) the PDE4B-inhibitor of formula III was used as a “test compound” • in rising concentrations either alone (see full circles and black solid curve in FIG. 1) or • in rising concentrations together with a fixed concentration of 100 nMol/L of Nintedanib (see empty circles and grey solid line in FIG. 1). Experiment A2)
In experiment A2) Apremilast was used as a “test compound” • in rising concentrations either alone (see full circles and black solid curve in FIG. 2) or • in rising concentrations together with a fixed concentration of 100 nMol/L of Nintedanib (see empty circles and grey solid line in FIG. 2). Experiment A3)
In experiment A3) Roflumilast-N-oxide was used as a “test compound” • in rising concentrations either alone (see full circles and black solid curve in FIG. 3) or • in rising concentrations together with a fixed concentration of 100 nMol/L of Nintedanib (see empty circles and grey solid line in FIG. 3). Test Compound Dilutions
All “test compounds” (the PDE4B-inhibitor of formula III, Apremilast or Roflumilast) were prepared 1000× in 0.1 mmol/L HCl or DMSO and a 1:3.16 dilution series was performed (in 0.1 mmol/L HCl or DMSO). To obtain 2× concentrated compound-medium a 1:500 dilution (2 μl of the 1000× dilution was added to 998 μl FBM plus 2 nmol/L PGE2) was prepared.
48 h after seeding, the medium was aspirated and FBM (100 μl per well) was added. After 1 h incubation at 37° C., 90 μl medium containing 2× concentrated compounds (at different concentrations) plus 2× concentrated PGE2 (2 nmol/L) was added for 30 min Final concentration for PGE2 was 1 nmol/L.
30 min after test compound pre-incubation (190 μL), 10 μl of 20× concentrated TGF-β was added and the cells stimulated for 48 h at a temperature of 37° C.
For this purpose the TGF-β stock solution (20 μg/mL reconstituted in 4 mmol/L sterile HCL) was diluted 1:200 in starvation medium to reach a concentration of 100 ng/mL. 10 μL of this TGF-β medium or starvation medium was added to indicated wells. The test compound concentration was maintained during the stimulation. The final TGF-β concentration was […].
48 h after stimulation supernatants were removed and stored at −80° C. for further experiments. Cells were washed once with ice cold PBS and 50 μl RIPA buffer containing 1× protease inhibitor was added per well. Lysates were incubated for 5 minutes on ice before stored at −80° C.
After thawing, 25 μl of each lysate was transferred to the membrane of the multi-array 96 well plate (MSD) and incubated for 2 h at room temperature with gentle shaking. After the incubation time, plates were washed 3 times with 200 μl 1× Tris-wash buffer (MSD) and 150 μl of 3% blocking buffer was added for 1 h. After blocking, plates were washed 3 times with 200 μl 1× Tris-wash buffer and 25 μl of the antibody solution (per plate 0.75 ml 3% blocking buffer, 2.25 ml 1× Tris-wash buffer, 1.2 μl anti-α-SMA antibody (1:2500), 15 μl goat anti-mouse sulfo-tag antibody (1:200) was added for 1 h. After AB-incubation plates were washed 3 times with 200 μl 1× Tris-wash buffer and 150 μl of 1×MSD read buffer was added per well. Plates were measured with Sector Imager (MSD). […]

[3] = test system: rat; details: in vivo; cited from earlier work
[4] = test system: human COPD-patients; details: 500 μg daily; cited from earlier work

CCOc1cc([C@@H](CS(C)(=O)=O)N2C(=O)c3cccc(NC(C)=O)c3C2=O)ccc1OC [Apremilast]
IC50 ([1]; Homo sapiens, Fibroblast, PDE4 inhibitor alone, IPF lung fibroblasts, read-out: IC50, inhibition of FGF plus IL-1β-stimulated proliferation): 1.8 µM | IC50 ([1]; Homo sapiens, Fibroblast, PDE4 inhibitor in rising concentrations with fixed 100 nMol/L Nintedanib, read-out: IC50, inhibition of FGF plus IL-1β-stimulated proliferation, combination with Nintedanib): 1.6 µM | IC50 of PDE4 inhibitor alone compared to IC50 of its combination with Nintedanib (proliferation) [1]: 1.13 fold | effect of the combination with Nintedanib on inhibition of fibroblast proliferation versus calculated additive curve [1]: additive effect | IC50 ([2]; Homo sapiens, Fibroblast, PDE4 inhibitor alone, IPF lung fibroblasts, read-out: IC50, inhibition of TGF-β-stimulated α-SMA protein expression): 3 µM | IC50 ([2]; Homo sapiens, Fibroblast, PDE4 inhibitor in rising concentrations with fixed 100 nMol/L Nintedanib, read-out: IC50, inhibition of TGF-β-stimulated α-SMA protein expression, combination with Nintedanib): 2 µM | sign of inhibition of TGF-β-stimulated α-SMA protein expression over the concentration/inhibition curve [2]: negative inhibitions

COC(=O)c1ccc2c(c1)NC(=O)/C2=C(\Nc1ccc(N(C)C(=O)CN2CCN(C)CC2)cc1)c1ccccc1 [Nintedanib]
inhibitory effect on human lung fibroblasts proliferation (in words) ([1]; Nintedanib alone, 100 nMol/L): clear inhibitory effect | inhibitory effect on TGF-β-stimulated α-SMA protein expression (in words) ([2]; 100 nM Nintedanib alone): no inhibitory effect | Inhibition of TGF-β-stimulated α-SMA protein expression ([2]; 100 nMol/L Nintedanib alone, FIGS. 1, 2 and 3): ≤ 0

O=C(Nc1c(Cl)c[n+]([O-])cc1Cl)c1ccc(OC(F)F)c(OCC2CC2)c1 [Roflumilast N-Oxide]
IC50 of PDE4 inhibitor alone compared to IC50 of its combination with Nintedanib (proliferation) [1]: 0.82 fold | IC50 ([1]; PDE4 inhibitor alone, IPF lung fibroblasts, read-out: IC50, inhibition of FGF plus IL-1β-stimulated proliferation): 0.00044 µM | IC50 ([1]; PDE4 inhibitor in rising concentrations with fixed 100 nMol/L Nintedanib, read-out: IC50, inhibition of FGF plus IL-1β-stimulated proliferation, combination with Nintedanib): 0.000534 µM | effect of the combination with Nintedanib on inhibition of fibroblast proliferation versus calculated additive curve [1]: additive effect | IC50 ([2]; PDE4 inhibitor alone, IPF lung fibroblasts, read-out: IC50, inhibition of TGF-β-stimulated α-SMA protein expression): 0.014 µM | IC50 ([2]; PDE4 inhibitor in rising concentrations with fixed 100 nMol/L Nintedanib, read-out: IC50, inhibition of TGF-β-stimulated α-SMA protein expression, combination with Nintedanib): 0.0085 µM | sign of inhibition of TGF-β-stimulated α-SMA protein expression over the concentration/inhibition curve [2]: negative inhibitions

O=C(Nc1c(Cl)cncc1Cl)c1ccc(OC(F)F)c(OCC2CC2)c1 [Roflumilast]
gastrointestinal side effects in similar gastric emptying and intestinal transit experiments [3]: clear trend to show gastrointestinal side effects | patients with decreased weight [4]: 7.5% | patients with diarrhea [4]: 9.5% | patients with headache [4]: 4.4% | patients with nausea [4]: 4.7%
